Test results reported in PMC6301090 (Nature medicine, 2018).

Molecular target: ΔF508-NBD1 (CFTR nucleotide binding domain 1) (Homo sapiens, UniProt P13569, F494N/DEL508-508)
Test: SPR

O=C(O)Cc1c(Br)[nH]c2ccccc12 [BIA, bromoindole-3-acetic acid]
Kd: > 1000 µM
